Test results from ChEMBL document CHEMBL1201862, “PubChem BioAssay data set” (2004).
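How tested: cells in 96-well plates exposed to compound for 48 hours at five concentrations. GI50 marks 50% less growth.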 Calls of active or inactive are those of the source. Cut-off read from the data, not from the text of the source: active = GI50 up to about 1.1 µM and inactive = higher.

Legend:
Experiment in all cases: DTP human tumour cell line panel, 48 h
T47D = tested on: T47D
TK-10 = tested on: TK-10
HOP-62 = tested on: HOP-62
SF-295 = tested on: SF-295
MDA-MB-435 = tested on: MDA-MB-435
MOLT-4 = tested on: MOLT-4
HL-60 = tested on: HL-60
SR = tested on: SR
UACC-257 = tested on: UACC-257
OVCAR-8 = tested on: OVCAR-8
NCI-H522 = tested on: NCI-H522
PC-3 = tested on: PC-3
NCI-H460 = tested on: NCI-H460
HCC 2998 = tested on: HCC 2998
RXF 393 = tested on: RXF 393
NCI/ADR-RES = tested on: NCI/ADR-RES
OVCAR-5 = tested on: OVCAR-5
SK-MEL-28 = tested on: SK-MEL-28
CCRF-CEM = tested on: CCRF-CEM
786-0 = tested on: 786-0

Measured: GI50

CC(=O)O[C@H]1C[C@]2(O)[C@@H]3CC[C@@H]4C[C@@H](O)CC[C@]4(C)[C@H]3CC[C@]2(C)[C@H]1C1=CC(=O)OC1
active: T47D 0.222 µM | TK-10 0.0796 µM | HOP-62 0.0493 µM | SF-295 0.0391 µM | MDA-MB-435 0.179 µM | MOLT-4 0.0201 µM | HL-60 0.0382 µM | SR 0.0315 µM | UACC-257 0.18 µM | OVCAR-8 0.0923 µM | NCI-H522 0.0251 µM | PC-3 0.0662 µM | NCI-H460 0.0289 µM | HCC 2998 0.161 µM | RXF 393 0.0324 µM | NCI/ADR-RES 0.074 µM | OVCAR-5 0.182 µM | SK-MEL-28 0.324 µM | CCRF-CEM 0.0375 µM | 786-0 0.0455 µM

CC1=NN(C(=O)c2ccncc2)C(=O)C1/N=N/c1ccc2ccccc2c1 (stereo not given)
inactive: T47D > 100 µM | TK-10 60.3 µM | HOP-62 > 100 µM | SF-295 91 µM | MDA-MB-435 3.4 µM | MOLT-4 5.32 µM | HL-60 1.71 µM | SR 5.3 µM | UACC-257 > 100 µM | OVCAR-8 > 100 µM | NCI-H522 > 100 µM | PC-3 > 100 µM | NCI-H460 21.5 µM | HCC 2998 3.03 µM | RXF 393 > 100 µM | NCI/ADR-RES 13.7 µM | OVCAR-5 > 60.7 µM | SK-MEL-28 > 100 µM | CCRF-CEM 64.6 µM | 786-0 > 100 µM

COc1ccc(-c2cc3c(c4cc(OC)ccc24)C(=O)OC3=O)cc1
inactive: T47D > 100 µM | TK-10 > 100 µM | HOP-62 > 100 µM | SF-295 > 100 µM | MDA-MB-435 68.4 µM | MOLT-4 > 100 µM | HL-60 > 100 µM | SR > 100 µM | UACC-257 > 100 µM | OVCAR-8 > 100 µM | NCI-H522 > 100 µM | PC-3 > 100 µM | NCI-H460 > 100 µM | HCC 2998 > 100 µM | RXF 393 > 100 µM | NCI/ADR-RES > 100 µM | OVCAR-5 > 100 µM | SK-MEL-28 > 100 µM | CCRF-CEM > 100 µM | 786-0 > 100 µM

O=C1C(Cl)C(c2cc3cc(Br)ccc3nc2Cl)N1c1ccc(Cl)cc1 (stereo not given)
inactive: T47D 6.65 µM | TK-10 5.24 µM | HOP-62 9.68 µM | SF-295 9.68 µM | MDA-MB-435 5.82 µM | MOLT-4 3.89 µM | HL-60 6.95 µM | SR 1.64 µM | UACC-257 4.81 µM | OVCAR-8 5.9 µM | NCI-H522 3.95 µM | PC-3 5.69 µM | NCI-H460 6.59 µM | HCC 2998 4.36 µM | RXF 393 5.13 µM | NCI/ADR-RES 5.75 µM | OVCAR-5 10.7 µM | SK-MEL-28 11.1 µM | CCRF-CEM 3.08 µM | 786-0 4.65 µM

COC(=O)c1ccc(NC(=O)O/N=C(\Cl)C(C)C)cc1
active: NCI-H522 0.32 µM | CCRF-CEM 0.466 µM
inactive: T47D 2 µM | TK-10 3.05 µM | HOP-62 18.7 µM | SF-295 17.7 µM | MDA-MB-435 11.3 µM | MOLT-4 1.79 µM | HL-60 1.36 µM | SR 1.18 µM | UACC-257 15.2 µM | OVCAR-8 14 µM | PC-3 17.3 µM | NCI-H460 20.9 µM | HCC 2998 14.7 µM | RXF 393 6.21 µM | NCI/ADR-RES 5.71 µM | OVCAR-5 17.1 µM | SK-MEL-28 4.84 µM | 786-0 2.03 µM

COc1ccc(C2=C(Cl)C(=O)O/C2=C\c2ccc(OC)c(Br)c2)cc1Cl
inactive: T47D 58.9 µM | TK-10 21.5 µM | HOP-62 14.6 µM | SF-295 15.7 µM | MDA-MB-435 > 100 µM | MOLT-4 41.5 µM | HL-60 > 100 µM | SR 51.8 µM | UACC-257 > 100 µM | OVCAR-8 22.7 µM | NCI-H522 25.6 µM | PC-3 39.1 µM | NCI-H460 27.7 µM | HCC 2998 57.9 µM | RXF 393 18.3 µM | NCI/ADR-RES 37.8 µM | OVCAR-5 43.5 µM | SK-MEL-28 > 100 µM | CCRF-CEM 28.1 µM | 786-0 17.2 µM

CC(O)(C(=O)N(O)c1ccc(Cl)cc1)c1ccc(Cl)cc1 (stereo not given)
inactive: T47D 31.6 µM | TK-10 29.7 µM | HOP-62 26.7 µM | SF-295 27.3 µM | MDA-MB-435 24.7 µM | MOLT-4 12.5 µM | HL-60 14.7 µM | SR 13.8 µM | UACC-257 24.8 µM | OVCAR-8 27.2 µM | NCI-H522 18.6 µM | PC-3 22.1 µM | NCI-H460 34.2 µM | HCC 2998 13 µM | RXF 393 26.8 µM | NCI/ADR-RES 25.6 µM | OVCAR-5 37.9 µM | SK-MEL-28 33.3 µM | CCRF-CEM 6.08 µM | 786-0 28.8 µM

Cc1cc(S(=O)(=O)Nc2nnc3c4ccccc4cnn23)c(S)cc1Cl
inactive: T47D 74.1 µM | TK-10 > 100 µM | HOP-62 52.8 µM | SF-295 47.5 µM | MDA-MB-435 > 84.3 µM | MOLT-4 > 100 µM | HL-60 > 100 µM | SR > 100 µM | UACC-257 > 100 µM | OVCAR-8 > 100 µM | NCI-H522 > 88.5 µM | PC-3 > 100 µM | NCI-H460 31.3 µM | HCC 2998 42.2 µM | RXF 393 > 100 µM | NCI/ADR-RES > 64.7 µM | OVCAR-5 > 100 µM | SK-MEL-28 > 100 µM | CCRF-CEM > 100 µM | 786-0 > 74.3 µM

COc1ccc(OC)c(NC(=O)C(=O)Nn2c(S)nc3ccccc3c2=O)c1
inactive: T47D > 100 µM | TK-10 > 100 µM | HOP-62 > 100 µM | SF-295 > 100 µM | MDA-MB-435 > 100 µM | MOLT-4 > 100 µM | HL-60 > 100 µM | SR > 100 µM | UACC-257 > 100 µM | OVCAR-8 > 100 µM | NCI-H522 > 100 µM | PC-3 > 100 µM | NCI-H460 > 100 µM | HCC 2998 > 100 µM | RXF 393 > 100 µM | NCI/ADR-RES > 100 µM | OVCAR-5 > 100 µM | SK-MEL-28 > 100 µM | CCRF-CEM > 100 µM | 786-0 > 100 µM

O=C(NC(c1ccccc1)C(O)C(=O)OCc1ccc2c(c1)C(=O)c1ccccc1C2=O)c1ccccc1 (stereo not given)
inactive: T47D 15.2 µM | TK-10 15.2 µM | HOP-62 3.62 µM | SF-295 10.6 µM | MDA-MB-435 34.4 µM | MOLT-4 74.6 µM | HL-60 > 83.6 µM | SR 57.9 µM | UACC-257 28.5 µM | OVCAR-8 4.25 µM | NCI-H522 14.8 µM | PC-3 17.2 µM | NCI-H460 14.9 µM | HCC 2998 39.6 µM | RXF 393 3.13 µM | NCI/ADR-RES 4.35 µM | OVCAR-5 58.7 µM | SK-MEL-28 28.1 µM | CCRF-CEM 77.3 µM | 786-0 2.94 µM

COC(=O)c1c(C)cccc1C1CN=NC12Cc1ccc(C)cc1C2=O (stereo not given)
inactive: T47D 17.1 µM | TK-10 > 100 µM | HOP-62 52.7 µM | SF-295 65.9 µM | MDA-MB-435 32.7 µM | MOLT-4 27.4 µM | HL-60 21.6 µM | SR 40.2 µM | UACC-257 49.1 µM | OVCAR-8 43.2 µM | NCI-H522 29.4 µM | PC-3 39.2 µM | NCI-H460 15 µM | HCC 2998 40.9 µM | RXF 393 75.9 µM | NCI/ADR-RES 23 µM | OVCAR-5 > 100 µM | SK-MEL-28 43.4 µM | CCRF-CEM 32.4 µM | 786-0 71.3 µM

CCCc1cc(O)c2c(C)c3[nH]c4ccc(Cl)cc4c3c(C)c2n1
inactive: T47D 1.85 µM | TK-10 1.94 µM | HOP-62 2.2 µM | SF-295 2.36 µM | MDA-MB-435 1.6 µM | MOLT-4 2.81 µM | HL-60 1.67 µM | SR 1.88 µM | UACC-257 2 µM | OVCAR-8 2.55 µM | NCI-H522 1.87 µM | PC-3 4.06 µM | NCI-H460 1.97 µM | HCC 2998 1.62 µM | RXF 393 1.51 µM | NCI/ADR-RES 3.21 µM | OVCAR-5 2.46 µM | SK-MEL-28 1.46 µM | CCRF-CEM 2.07 µM | 786-0 1.61 µM
